Consider 29 molecules from patent US4968698A, “Nitrogen containing heterocyclic compounds” (Burroughs Wellcome Co., priority 1984, dated 1990).

The subject of this assay is Trichomonas vaginalis. The assay is described as follows: In vitro activity against T. vaginalis (IC50 determination). As to conditions: 37° C., aerobic, Modified Diamonds Medium. It is filed as cell-based. As for the experimental part:
The antiprotozoal e.g. antitrichomonal, activity of the compounds of the present invention may be assessed by conventional methods, for example by determining the minimum inhibition concentration (m.i.c.) or 50% inhibition level (IC50).
Modified Diamonds Medium (MDM) was prepared according to the method described in J. Kulda et al., American Journal of Obstetrics and Gynaecology 1970, 108, 908-18 and 4 cm^3 of the medium was pipetted into each of a series of tubes (usually 16 tubes). To each tube was added 0.5 cm^3 of varying concentration of a solution (usually in ethanol+MDM) or suspension of the test drug. Duplicate tubes for each drug concentration were prepared.
Finally, to each tube was added T. vaginalis (0.5 cm^3) at a concentration of 1×10^5 cm^-3,) to give a final trichomonad concentration of 1×10^4 cm^-3 in each tube. The tubes were then incubated (aerobically) at 37° C. and the resulting trichomonad numbers were counted at 24 and 48 hours using a haemacytometer.
This information was then used to determine the 50% inhibition concentration (IC50).

The mark [1] stands for this setting: 24 hr, 1×10^4 trichomonads cm^-3, read-out: IC50 24 hr.
[2] abbreviates: 48 hr, 1×10^4 trichomonads cm^-3, read-out: IC50 48 hr.

In brackets after ≈: the same amount, converted by molar mass. Where two headings read alike, the source gives them in different places.

As a reminder, the IC50 is the midpoint of a concentration-inhibition curve. With `CCCCOc1cc2c(cc1OCCCC)C(C=Cc1ccc(Cl)cc1)=NCC2` [Example 157, 6,7-Dibutyloxy-1-(4-chlorostyryl)-3,4-dihydroisoquinoline], the IC50 stood at 1.8 µg/mL (≈ 4.37 µM) under setting [1] and 2.1 µg/mL (≈ 5.1 µM) under setting [2].
As for `CCCCOc1ccc2c(c1)CCN=C2C=Cc1ccc([N+](=O)[O-])cc1` [Example 19, 6-Butyloxy-3,4-dihydro-1-(4-nitrostyryl)isoquinoline], the IC50 is, setting by setting: under setting [1], 10 µg/mL (≈ 28.5 µM); under setting [2], 13.5 µg/mL (≈ 38.5 µM).
For the molecule `C(=Cc1ccccc1)C1=NCCc2cc(OCc3ccccc3)ccc21` [Example 53, 6-Benzyloxy-3,4-dihydro-1-styrylisoquinoline], the IC50 came out at 3.2 µg/mL (≈ 9.43 µM) under setting [1] and 5.5 µg/mL (≈ 16.2 µM) under setting [2].
As for `CCCOc1cc2c(cc1OCCC)C(C=Cc1ccc(Cl)cc1Cl)=NCC2` [Example 155, 1-(2,4-Dichlorostyryl)-3,4-dihydro-6,7-dipropyloxyisoquinoline], the IC50 under setting [1] worked out at 1.2 µg/mL (≈ 2.87 µM) and the IC50 under setting [2] was 2.2 µg/mL (≈ 5.26 µM).
On the same counts, the results for `C/C=C/C=C/C1=NCCc2cc(OCCCCCC)ccc21` [Example 129, (E,E)-6-Hexyloxy-3,4-dihydro-1-(penta-1,3-dienyl)isoquinoline] are 2.9 µg/mL (≈ 9.75 µM) and 3.1 µg/mL (≈ 10.4 µM).
For the molecule `Clc1ccc(C=CC2=NCCc3cc(OCc4ccccc4)c(OCc4ccccc4)cc32)c(Cl)c1` [Example 170, 6,7-Bisbenzyloxy-1-(2,4-dichlorostyryl)-3,4-dihydroisoquinoline], the IC50 under setting [1] was determined as 1 µg/mL (≈ 1.94 µM) and the IC50 under setting [2] turned out to be 3.2 µg/mL (≈ 6.22 µM).
For `C(=Cc1ccccc1)C1=NCCc2c1ccc(OCc1ccccc1)c2OCc1ccccc1` [Example 171, 5,6-Bis(benzyloxy)-3,4-dihydro-1-styrylisoquinoline], in that order: 0.8 µg/mL (≈ 1.8 µM) and 1.8 µg/mL (≈ 4.04 µM).
On to `CCCCCCOc1ccc2c(c1)CCN=C2C=Cc1ccc(C#N)cc1` [Example 75, 1-(4-Cyanostyryl)-6-hexyloxy-3,4-dihydroisoquinoline], for which the half-maximal inhibitory concentration (IC50) reads like this: under setting [1], 0.3 µg/mL (≈ 0.837 µM); under setting [2], 0.8 µg/mL (≈ 2.23 µM).
Consider `C(=C\c1cccs1)/C1=NCCc2cc(OCc3ccccc3)ccc21` [Example 104, (E)-6-Benzyloxy-3,4-dihydro-1-[2-(2-thienyl)vinyl]isoquinoline], for which the IC50 came to 7.4 µg/mL (≈ 21.4 µM) under setting [1] and 7.3 µg/mL (≈ 21.1 µM) under setting [2].
`CCCCOc1ccc2c(c1)CCN=C2C=Cc1ccc(-c2ccccc2)cc1` [Example 24, 6-Butyloxy-3,4-dihydro-1-(4-phenylstyryl)isoquinoline]: the IC50 came out at 1.2 µg/mL (≈ 3.15 µM) under setting [1] and 128 µg/mL (≈ 336 µM) under setting [2].
`CC(C)(C)c1ccc(C=CC2=NCCc3cc(OCc4ccccc4)ccc32)cc1` [Example 60, 6-Benzyloxy-1-(4-t-butylstyryl)-3,4-dihydroisoquinoline]: the IC50 by setting is: under setting [1], 5.6 µg/mL (≈ 14.2 µM); under setting [2], 10.5 µg/mL (≈ 26.5 µM).
Turning to `CCCCOc1cc2c(cc1OCC)C(C=Cc1ccc(Cl)cc1Cl)=NCC2` [Example 160, 6-Butyloxy-1-(2,4-dichlorostyryl)-7-ethoxy-3,4-dihydroisoquinoline], the IC50 reads like this: under setting [1], 0.6 µg/mL (≈ 1.43 µM); under setting [2], 1 µg/mL (≈ 2.39 µM).
For the molecule `CCCOc1ccc2c(c1)CCN=C2/C=C/c1ccc([N+](=O)[O-])o1` [Example 113, (E)-3,4-Dihydro-6-propyloxy-1-[2-(5-nitro-2-furyl)]vinyl isoquinoline], the IC50 by setting is: under setting [1], 0.7 µg/mL (≈ 2.14 µM); under setting [2], 1.2 µg/mL (≈ 3.68 µM).
As to `C/C=C/C=C/C1=NCCc2cc(OCc3ccccc3)ccc21` [Example 130, (E,E)-6-Benzyloxy-3,4-dihydro-1-(penta-1,3-dienyl)isoquinoline], the 50% inhibitory concentration (IC50) is, setting by setting: under setting [1], 3.6 µg/mL (≈ 11.9 µM); under setting [2], 5.4 µg/mL (≈ 17.8 µM).
On the same counts, the results for `CCCCOc1ccc2c(c1)CCN=C2/C(Cl)=C/c1ccccc1` [Example 150] are 0.2 µg/mL (≈ 0.588 µM) and 0.2 µg/mL (≈ 0.588 µM).
On the same counts, the results for `Cl/C(=C\c1ccccc1)C1=NCCc2cc(OCc3ccccc3)ccc21` [Example 151, (Z)-6-Benzyloxy-1-(1-chloro-2-phenylvinyl)-3,4-dihydroisoquinoline] are 0.3 µg/mL (≈ 0.802 µM) and 0.3 µg/mL (≈ 0.802 µM).
In the case of `CCCCOc1ccc2c(c1)CCN=C2/C=C/c1cccc2ccccc12` [Example 135, (E)-6-Butyloxy-3,4-dihydro-1-[2-(1-naphthyl)vinyl]isoquinoline], the half-maximal inhibitory concentration (IC50) is 1.3 µg/mL (≈ 3.66 µM) under setting [1] and 1.6 µg/mL (≈ 4.5 µM) under setting [2].
On the same counts, the results for `CCCCOc1ccc2c(c1)CCN=C2C=Cc1ccc(OC)cc1OC` [Example 14, 6-Butyloxy-3,4-dihydro-1-(2,4-dimethoxystyryl)isoquinoline] are 5.5 µg/mL (≈ 15 µM) and 8 µg/mL (≈ 21.9 µM).
With `CCCCOc1cc2c(cc1OCC)CCN=C2C=Cc1ccc(Cl)cc1Cl` [Example 161, 7-Butyloxy-1-(2,4-dichlorostyryl)-6-ethoxy-3,4-dihydroisoquinoline], the IC50 runs as follows: under setting [1], 0.7 µg/mL (≈ 1.67 µM); under setting [2], 1.4 µg/mL (≈ 3.35 µM).
For `Clc1ccc(C=CC2=NCCc3cc(Oc4ccccc4)ccc32)cc1` [Example 65, 1-(4-Chlorostyryl)-3,4-dihydro-6-phenoxy-isoquinoline], in that order: 1.2 µg/mL (≈ 3.33 µM) and 1.6 µg/mL (≈ 4.45 µM).
For `Clc1ccc(C=CC2=NCCc3cc(OCc4ccc(Cl)cc4Cl)ccc32)c(Cl)c1` [Example 92, 6-(2,4-Dichlorobenzyloxy)-1-(2,4-dichlorostyryl)-3,4-dihydroisoquinoline], in that order: 0.5 µg/mL (≈ 1.05 µM) and 1 µg/mL (≈ 2.1 µM).
Consider `C=CCCOc1ccc2c(c1)CCN=C2C=Cc1ccc(Cl)cc1Cl` [Example 46, 6-(But-3-enyloxy)-1-(2,4-dichlorostyryl)-3,4-dihydroisoquinoline], for which the IC50 was 1.1 µg/mL (≈ 2.95 µM) under setting [1] and 1.3 µg/mL (≈ 3.49 µM) under setting [2].
On the same counts, the results for `CCCc1c2c(cc(OC)c1OCc1ccccc1)C(C=Cc1ccc(Cl)cc1)=NCC2` [Example 176, 6-Benzyloxy-1-(4-chlorostyryl)-3,4-dihydro-7-methoxy-5-propylisoquinoline] are 1.7 µg/mL (≈ 3.81 µM) and 3.1 µg/mL (≈ 6.95 µM).
On the same counts, the results for `CCCCCCOc1cc2c(cc1OCCCCCC)C(C=Cc1ccc(Cl)cc1)=NCC2` [Example 165, 1-(4-Chlorostyryl)-6,7-dihexyloxy-3,4-dihydroisoquinoline] are 9 µg/mL (≈ 19.2 µM) and 10 µg/mL (≈ 21.4 µM).
`C(/C=C/c1ccccc1)=C\C1=NCCc2cc(OCc3ccccc3)ccc21` [Example 126, (E,E)-6-Benzyloxy-3,4-dihydro-1-(4-phenylbuta-1,3-dienyl)isoquinoline]: the half-maximal inhibitory concentration (IC50) by setting is: under setting [1], 1.5 µg/mL (≈ 4.1 µM); under setting [2], 1.7 µg/mL (≈ 4.65 µM).
As to `Clc1ccc(COc2ccc3c(c2)CCN=C3C=Cc2ccc(Cl)cc2Cl)cc1` [Example 85, 6-(4-Chlorobenzyloxy)-1-(2,4-dichlorostyryl)-3,4-dihydroisoquinoline], the IC50 came out at 1.1 µg/mL (≈ 2.48 µM) under setting [1] and 1.5 µg/mL (≈ 3.39 µM) under setting [2].
Consider `C(=Cc1ccc(-c2ccccc2)cc1)C1=NCCc2cc(OCc3ccccc3)ccc21` [Example 82], for which the IC50 runs as follows: under setting [1], 0.6 µg/mL (≈ 1.44 µM); under setting [2], 2 µg/mL (≈ 4.81 µM).
On the same counts, the results for `CC(C)(C)c1ccc(COc2ccc3c(c2)CCN=C3C=Cc2ccc(Cl)cc2Cl)cc1` [Example 81, 6-(4-t-Butylbenzyloxy)-1-(2,4-dichlorostyryl)-3,4-dihydroisoquinoline] are 1.1 µg/mL (≈ 2.37 µM) and 1.6 µg/mL (≈ 3.45 µM).
Take `CCCCOc1ccc2c(c1)CCN=C2/C(C)=C/c1ccccc1` [Example 153, (E)-6-Butyloxy-3,4-dihydro-1-(2-phenyl-1-methylvinyl)isoquinoline]: the IC50 is, setting by setting: under setting [1], 0.3 µg/mL (≈ 0.939 µM); under setting [2], 0.5 µg/mL (≈ 1.57 µM).
